Data set [1] deals with E. coli IH3080. Put plainly: Bactericidal activity in PBS (% survival). It is filed as cell-based, Escherichia coli. Conditions: solution age fresh. How it is done: For the measurement of the antibacterial activity of aqueous solutions of NAB 739 methanesulfonate sodium, three different solutions were made: 1) A solution (1 mg/ml) made in 0.9% NaCl immediately prior to the experiment, 2) a solution (1 mg/ml) made in 0.9% NaCl 24 h prior to the experiment and kept at 37° C., 3) a solution (1 mg/ml) made in 0.9% NaCl 48 h prior to the experiment and kept at 37° C. A freshly made solution of NAB 739 acetate served as the control compound.
The test bacterium was E. coli IH3080. It was grown in LB broth (LB broth Lennox, Difco, BD, Sparks, Md., U.S.A.) at 37 Celsius in a rotary shaker into early logarithmic growth phase, washed with PBS, and resuspended in PBS to approx. 10e9 cells/ml. PBS was inoculated with approx. 500 CFU (colony forming units) of bacteria per ml and pipetted in 0.2 ml aliquots into wells of a microtiter plate. The plates already contained increasing concentrations of NAB 739 methanesulfonate or the control compound in 0.020 ml of 0.9% NaCl. […] The plate was incubated overnight at 37° C. and the developed colonies were counted.

The nature of data set [2]: in vivo. Conditions: male, Sprague-Dawley, rat, iv, 1 mg/kg.
Procedure: Four rats (Sprague-Dawley, male) were studied.
The samples were analyzed using liquid chromatography and mass spectrometry with electrospray ionization interface (LC/electrospray ionization MS).
The test system of data set [3] is E. coli IH3080. Put plainly: Experimental E. coli peritonitis model in mice, NAB739 (Example 18). It is filed as in vivo. As for the experimental part:
A suspension of E. coli IH3080 (K1:O18) in saline (0.9% NaCl) was prepared from an overnight culture on a blood agar plate (Statens Serum Institut, Copenhagen, Denmark). All mice (female NMR1 from Harlan Scandinavia, Allerød, Denmark; weight, 25-30 g) were inoculated intraperitoneally with 0.5 ml of the suspension containing 0.96×10^6 CFU per ml in the lateral lower quadrant of the abdomen. At 1 h, the CFU count was determined from three mice and the remaining mice (four mice per group) were treated with a subcutaneous injection of 0.2 ml of erythromycin solution in saline (corresponding to 5 mg/kg body weight) or NAB7061 solution in saline (corresponding to 5 mg/kg body weight), or both erythromycin and NAB7061 (corresponding to 5 mg/kg body weight of both drugs; given at two separate sites). Control group received two 0.2 ml injections of saline. At 4.5 h postinfection, all mice were anaesthetized with CO2 and sacrificed. Sterile saline (2 ml) was injected intraperitoneally and the abdomen was gently massaged before it was opened and the fluid sampled. Appropriate dilutions of the fluid were plated on blood agar plates, the plates were incubated overnight, and the colonies were counted.
The experiment was performed by using the methodology described in Example 12.
The mice were inoculated intraperitoneally with 0.5 ml of the E. coli IH3080 suspension containing 1×10^6 CFU per ml. The treatment groups (7 animals per group) were the following: A, control animals receiving saline; B, animals receiving the dose of 1 mg/kg of NAB739 subcutanously at 1 h and at 3 h postinfection; C, animals receiving the dose of 2 mg/kg of NAB739 subcutanously at 1 h and at 3 h postinfection; D, animals receiving the dose of 4 mg/kg of NAB739 subcutanously at 1 h and at 3 h postinfection; E, animals receiving the dose of 2 mg/kg of the control compound, polymyxin B sulfate (Sigma-Aldrich, P0972) subcutanously at 1 h and at 3 h postinfection.

The nature of data set [4]: in vivo. The following applies: male, Sprague-Dawley, rat, iv, 1 mg/kg. This is another data set of the same source.
Procedure: Each rat (n=5, Sprague-Dawley, male) was anaesthetized using isoflurane, and a polyethylene cannula was inserted into the jugular vein. Each rat was placed into a metabolic cage and allowed to recover from the procedure overnight. […] When collecting samples, the first 100 μl of blood was withdrawn and kept in the syringe. After collecting the actual sample with another syringe, the content of the first syringe was returned to the rat together with 400 μl of heparinized saline. Blood samples were centrifuged to obtain plasma. […] Plasma and urine samples were stored at −80° C.
To a 100-μl sample, 100 μl of acetonitrile was added, the mixture was vortex-mixed for 1 min, and centrifuged at 10,000 g for 10 min. The supernatant was transferred to an SPE C18 cartridge (Sep-Pak, Waters, Mass. USA) for derivatization with 9-fluorenylmethyl chloroformate. […] The chromatography employed the HPLC C18 column (50×4.6 mm), the mobile phase of acetonitrile/tetrahydrofuran/water (60:15:30, v/v), the flow rate of 1.0 ml/min, and the detection at an excitation wavelength of 260 nm and an emission wavelength of 315 nm.
The next data set has as its system S. marcescens ATCC8100. Put plainly: Growth inhibition around wells on LB agar plates. It is filed as cell-based, Serratia marcescens. How it is done: (§1) From an overnight-grown culture of IH3080 on LB agar, a suspension of approx. 10^8 cells/ml was prepared in 0.9% NaCl. Aliquots of this suspension were then pipetted on the agar plates and the plates were gently shaken to spread the suspension evenly on the entire surface of the plate. Thereafter, the unabsorbed part of the suspension was removed by using a Pasteur pipette. After the surface had dried, small wells (diameter, 2 mm) were drilled on the plates (five wells per plate) by using a sterile sharp-edged narrow metal tube, single-use pipette tip, and vacuum suction. An alternative method used a swab to spread the inoculum. Samples (4 μl and 10 μl) of the peptide solution in 0.9% NaCl (at concentrations of 1 μg/ml and 0.1 μg/ml) were then pipetted to the wells and the sample fluids were allowed to absorb. Controls included 0.9% NaCl solution without the compound to be tested. The plates were then incubated for 18 h at 37° C. whereafter the diameters of growth inhibition zones around each well were measured; the diameter of the well itself was not reduced. Finally, the diameters were converted to surface areas of growth inhibition (in square mm).
(§2) The susceptibility of eleven Gram-negative bacterial strains (nine different species) to NAB734 and polymyxin B was compared by using the susceptibility determination method described in Example 2. The strains included those belonging to the species of Serratia marcescens and Proteus mirabilis, both species generally known to be resistant to polymyxin. Furthermore, the susceptibility determination was also performed by using the Gram-positive bacterium, Staphylococcus aureus, also generally known to be polymyxin-resistant. Ten of the strains originated from ATCC (American Type Culture Collection, Manassas, Va., U.S.A.), and one from CCUG (Culture Collection of University of Gothenburg, Sweden). The source of E. coli IH3080 has been described in Example 2. Polymyxin B sulfate was from Sigma-Aldrich (St. Louis, Mo., USA).

Another data set relates to K. pneumoniae ATCC13883. Nature of the data set: Growth inhibition around wells on LB agar plates. It is filed as cell-based, Klebsiella pneumoniae. As for the experimental part:
as §1, §2

Data set [5] concerns E. coli IH3080. Nature of the data set: E-test MIC with or without NAB7061 (4 μg/ml), Mueller-Hinton agar. It is filed as cell-based, Escherichia coli. The method in brief: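 Read-out: MIC taken from the E-strip scale. Testing followed the manufacturer's instructions for strip use.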
The next data set has as its system K. oxytoca ATCC13182. Put plainly: Growth inhibition around wells on LB agar plates. It is filed as cell-based, Klebsiella oxytoca. The following applies: 4 μg. As for the experimental part: as §1, §2
In a further data set the test system is S. aureus ATCC 25923. Nature of the data set: Growth inhibition around wells on LB agar plates. It is filed as cell-based, Staphylococcus aureus. How it is done: as §1, §2

Where a SMILES comes first, the peptide text is derived from it. Bridges are numbered along the chain shown (N, C = ends). [ ]: non-standard residue; d: D form. The star is where a group is joined. Octanoyl = CCCCCCCC(=O)*; Dab = NCC[C@H](N)C(=O)O; Abu = CC[C@H](N)C(=O)O

For the compound `CCCCCCCC(=O)N[C@H](C(=O)N[C@H](CO)C(=O)N[C@H]1CCNC(=O)[C@H]([C@@H](C)O)NC(=O)[C@H](CCN)NC(=O)[C@H](CCN)NC(=O)[C@H](CC(C)C)NC(=O)[C@@H](Cc2ccccc2)NC(=O)[C@H](CCN)NC1=O)[C@@H](C)O` [NAB 739, OA-Thr-DSer-cy[Dab-Dab-DPhe-Leu-Dab-Dab-Thr-]] (Octanoyl-T[dS][Dab][Dab][dF]L[Dab][Dab]T; lactam 3-C), the “% survival at 37 degrees centigrade” value in the data set with E. coli IH3080 [1] (1 μg/ml) was 21%; in the data set with E. coli IH3080 [1] (2 μg/ml), 2%; in the data set with E. coli IH3080 [1] (4 μg/ml) it was 0%. Further, the CL renal in the data set “in vivo [2]” (plasma and urine) was 0.53 ± 0.3 mL/min/kg. Moreover, the Vd (in general, the apparent volume that relates the amount in the body to the concentration in plasma or blood) in the data set “in vivo [2]” (plasma) worked out at 0.222 ± 0.0205 L/kg. In addition, the clearance (as a rule, a measure of how efficiently the substance is removed, as volume per time) in the data set “in vivo [2]” (plasma) was found to be 2.63 ± 0.54 mL/min/kg. The half-life (commonly the time needed for the level to fall by half in the phase considered) in “in vivo [2]” (plasma) was found to be 1.15 ± 0.365 h. This compound returned a dose excreted in the data set “in vivo [2]” (urine) of 19.4 ± 7.38%. The “CFU counts from the peritoneum, fold lower than in the saline control group” value in the data set on E. coli IH3080 [3] (1 mg/kg s.c. at 1 h and 3 h, 7 h postinfection) is on record as ≥ 10 000 fold; in the data set with E. coli IH3080 [3] (2 mg/kg s.c. at 1 h and 3 h, both 4 h and 7 h postinfection), ≥ 10 000 fold; in the data set with E. coli IH3080 [3] (4 mg/kg s.c. at 1 h and 3 h, both 4 h and 7 h postinfection) it was ≥ 10 000 fold.

As to `CCCCCCCC(=O)N[C@H](C(=O)N[C@@H](CC)C(=O)N[C@H]1CCNC(=O)[C@H]([C@@H](C)O)NC(=O)[C@H](CCN)NC(=O)[C@H](CCN)NC(=O)[C@H](CC(C)C)NC(=O)[C@@H](Cc2ccccc2)NC(=O)[C@H](CCN)NC1=O)[C@@H](C)O` [NAB 7061, OA-Thr-Abu-cy[Dab-Dab-DPhe-Leu-Dab-Dab-Thr-]] (Octanoyl-T[Abu][Dab][Dab][dF]L[Dab][Dab]T; lactam 3-C), the CL renal in “in vivo [4]” (plasma and urine) is 0.28 ± 0.16 mL/min/kg. Moreover, in the data set “in vivo [4]” (plasma), the Vd stood at 0.339 ± 0.096 L/kg, the clearance turned out to be 3.84 ± 0.75 mL/min/kg and the half-life was found to be 1.1 ± 0.205 h. In “in vivo [4]” (urine), this compound returned a dose excreted of 7.16 ± 3.7%.

With Polymyxin B [reference compound], the “growth inhibition around a well” value came out at 0 square millimeters with S. marcescens ATCC8100 (4 μg); 0 square millimeters in the data set with S. marcescens ATCC8100 (10 μg); 79 square millimeters with K. pneumoniae ATCC13883 (4 μg); 113 square millimeters in the data set on K. pneumoniae ATCC13883 (10 μg); 79 square millimeters in the data set with K. oxytoca ATCC13182; 0 square millimeters in the data set with S. aureus ATCC 25923 (4 μg). Also, the “growth inhibition around a well” value in the data set on S. aureus ATCC 25923 (10 μg) stood at 0 square millimeters. Further, the “Sensitization factor to antibiotic (MIC without / with 4 μg/ml of NAB 7061)” value with E. coli IH3080 [5] is listed as 2.

The values are drawn from patent US8329645B2, “Polymyxin derivatives and uses thereof” (priority 2008, dated 2012).
